In paper PMC5874590, “The Occurrence of Flavonoids and Related Compounds in Cedrus brevifolia A. Henry ex Elwes & A. Henry Needles. Inhibitory Potencies on Lipoxygenase, Linoleic Acid Lipid Peroxidation and Antioxidant Activity” (Plants, 2017):

What follows are molecules tested against T1, soybean lipoxygenase (LOX) (Glycine max, UniProt P08170) (assay: UV absorbance at […] nm). Details: 0.1 mM compound; sodium linoleate; room temperature.
T1 construct: gene LOX1.1; commercial native soybean enzyme (Sigma), catalogue number or type not given; 13-hydroperoxylinoleate product points to LOX-1
T1 sequence (P08170 1-839): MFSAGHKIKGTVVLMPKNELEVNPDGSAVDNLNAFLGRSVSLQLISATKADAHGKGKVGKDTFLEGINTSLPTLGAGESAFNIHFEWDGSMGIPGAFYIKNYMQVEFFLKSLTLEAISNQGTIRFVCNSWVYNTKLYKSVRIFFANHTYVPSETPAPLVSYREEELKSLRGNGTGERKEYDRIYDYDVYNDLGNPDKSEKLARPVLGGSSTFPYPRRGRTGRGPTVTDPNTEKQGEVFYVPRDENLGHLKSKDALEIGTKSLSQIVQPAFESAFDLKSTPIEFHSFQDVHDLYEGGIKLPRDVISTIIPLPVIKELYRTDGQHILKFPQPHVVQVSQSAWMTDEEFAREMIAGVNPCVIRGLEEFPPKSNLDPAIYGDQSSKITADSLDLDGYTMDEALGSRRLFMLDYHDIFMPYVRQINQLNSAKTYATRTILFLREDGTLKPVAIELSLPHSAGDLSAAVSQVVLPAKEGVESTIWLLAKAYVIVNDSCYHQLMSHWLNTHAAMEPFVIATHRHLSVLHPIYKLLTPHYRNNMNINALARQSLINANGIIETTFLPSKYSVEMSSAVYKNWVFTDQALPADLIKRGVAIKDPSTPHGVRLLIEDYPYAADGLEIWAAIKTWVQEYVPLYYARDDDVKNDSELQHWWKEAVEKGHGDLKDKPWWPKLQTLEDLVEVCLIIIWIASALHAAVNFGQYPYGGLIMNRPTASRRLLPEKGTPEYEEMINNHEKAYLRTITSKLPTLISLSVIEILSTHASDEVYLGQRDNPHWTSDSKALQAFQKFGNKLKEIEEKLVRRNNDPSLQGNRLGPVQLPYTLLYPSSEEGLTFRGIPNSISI
Format: biochemical

% LOX ± SD Inhbt @ (0.1 mM)	Compound
29 ± 1.1%	O=C(O[C@@H]1O[C@H](CO)[C@@H](O)[C@H](O)[C@H]1O)c1ccccc1 [compound 5, benzoate glucoside]
18 ± 0.6%	O=C(O)/C=C/c1ccc(O)cc1 [compound 13, p-coumaric acid]
100 ± 2.5%	O=C(O)/C=C/c1ccc(O[C@@H]2O[C@H](CO)[C@@H](O)[C@H](O)[C@H]2O)cc1 [compound 14, 4-O-β-D-glucopyranyl trans-p-coumaric acid]
25±1.2%	CC1=CC(=O)CC(C)(C)[C@@]1(O)/C=C/C(C)=C\CO[C@@H]1O[C@H](CO)[C@@H](O)[C@H](O)[C@H]1O [compound 16, abscisic alcohol glucoside]
46 ± 1.0%	C[C@@H]1O[C@@H](OC[C@H]2O[C@@H](Oc3c(-c4ccc(O)cc4)oc4cc(O)cc(O)c4c3=O)[C@H](O)[C@@H](O)[C@@H]2O)[C@H](O)[C@H](O)[C@H]1O [compound 17, kaempferol-3-O-β-rutinoside]
8 ± 0.3%	O=C(/C=C/c1ccc(O)cc1)OC[C@H]1O[C@@H](Oc2c(-c3ccc(O)cc3)oc3cc(O)cc(O)c3c2=O)[C@H](O)[C@@H](O)[C@@H]1O [compound 19, tiliroside]

The molecules below were run against T1, soybean lipoxygenase (LOX) (assay: UV absorbance at […] nm). Details: room temperature; product 13-hydroperoxylinoleate.
Format: biochemical

Compound	UV absorbance at 234 nm
CCCCC/C=C\C/C=C\CCCCCCCC(=O)O [sodium linoleate]	The transformation of sodium linoleate to 13-hydroperoxylinoleate sodium was measured spectrophotometrically
